Reference: patent publication US11352322B2, “Cyclopropyl-amide compounds as dual LSD1/HDAC inhibitors” (Jubilant Epicore LLC, priority 2016, dated 2022)
Where a name gives a salt, the structure may show the parent alone. Read-outs that look alike come from different tables or passages of the source.

Key:
[1] = molecular target: HDAC6 human recombinant enzyme (Homo sapiens (Human), UniProt Q9UBN7); assay: Histone Deacetylase Assay (BPS Biosciences), HDAC6; type: biochemical
From the text: Histone Deacetylase Assay (BPS Biosciences)
Histone deacetylase assay was done as per manufacturer's instructions.

[2] = system: MM1S; assay: Anticancer activity: Alamar Blue assay, MM1S; type: cell-based; conditions: Homo sapiens, MM1.S, read-out: MM1S EC50
[3] = molecular target: LSD1 (Homo sapiens (Human), UniProt O60341); assay: TR-FRET Assay for LSD1; conditions: read-out: LSD1 IC50
Protocol: TR-FRET Assay for LSD1 (Perkin Elmer)
Tranylcypromine (TCP), LSD1 inhibitor was procured from Selleckchem. […] Stop Solution containing 300 μM tranylcypromine in 1× LANCE Detection Buffer was added to the wells and incubated for 5 min at RT. Then, Detection mix containing 2 nM Eu-Ab and 50 nM ULight-Streptavidin in 1× LANCE Detection Buffer was prepared and added to the reaction mix. This mixture was incubated for 1 hour at room temperature.

[4] = Metabolic stability in liver microsomes, HLM; conditions: 1 μM, NADPH
Protocol: (§1) The microsomal suspension was prepared by adding liver microsomes to 100 mM potassium phosphate buffer (pH7.4) to give a final protein concentration of 0.5 mg/mL. The stock solution of NCE (10 mM in DMSO) was added to the microsomes to provide a final concentration of 1 μM. […] Samples were vortexed and centrifuged at 5,000 rpm for 10 min to remove proteins. Supernatant were analyzed on LC-MS/MS.

[5] = Metabolic stability in liver microsomes, MLM; conditions: 1 μM, NADPH
Protocol: as §1

HDAC6 human recombinant enzyme, sequence (Q9UBN7 whole entry): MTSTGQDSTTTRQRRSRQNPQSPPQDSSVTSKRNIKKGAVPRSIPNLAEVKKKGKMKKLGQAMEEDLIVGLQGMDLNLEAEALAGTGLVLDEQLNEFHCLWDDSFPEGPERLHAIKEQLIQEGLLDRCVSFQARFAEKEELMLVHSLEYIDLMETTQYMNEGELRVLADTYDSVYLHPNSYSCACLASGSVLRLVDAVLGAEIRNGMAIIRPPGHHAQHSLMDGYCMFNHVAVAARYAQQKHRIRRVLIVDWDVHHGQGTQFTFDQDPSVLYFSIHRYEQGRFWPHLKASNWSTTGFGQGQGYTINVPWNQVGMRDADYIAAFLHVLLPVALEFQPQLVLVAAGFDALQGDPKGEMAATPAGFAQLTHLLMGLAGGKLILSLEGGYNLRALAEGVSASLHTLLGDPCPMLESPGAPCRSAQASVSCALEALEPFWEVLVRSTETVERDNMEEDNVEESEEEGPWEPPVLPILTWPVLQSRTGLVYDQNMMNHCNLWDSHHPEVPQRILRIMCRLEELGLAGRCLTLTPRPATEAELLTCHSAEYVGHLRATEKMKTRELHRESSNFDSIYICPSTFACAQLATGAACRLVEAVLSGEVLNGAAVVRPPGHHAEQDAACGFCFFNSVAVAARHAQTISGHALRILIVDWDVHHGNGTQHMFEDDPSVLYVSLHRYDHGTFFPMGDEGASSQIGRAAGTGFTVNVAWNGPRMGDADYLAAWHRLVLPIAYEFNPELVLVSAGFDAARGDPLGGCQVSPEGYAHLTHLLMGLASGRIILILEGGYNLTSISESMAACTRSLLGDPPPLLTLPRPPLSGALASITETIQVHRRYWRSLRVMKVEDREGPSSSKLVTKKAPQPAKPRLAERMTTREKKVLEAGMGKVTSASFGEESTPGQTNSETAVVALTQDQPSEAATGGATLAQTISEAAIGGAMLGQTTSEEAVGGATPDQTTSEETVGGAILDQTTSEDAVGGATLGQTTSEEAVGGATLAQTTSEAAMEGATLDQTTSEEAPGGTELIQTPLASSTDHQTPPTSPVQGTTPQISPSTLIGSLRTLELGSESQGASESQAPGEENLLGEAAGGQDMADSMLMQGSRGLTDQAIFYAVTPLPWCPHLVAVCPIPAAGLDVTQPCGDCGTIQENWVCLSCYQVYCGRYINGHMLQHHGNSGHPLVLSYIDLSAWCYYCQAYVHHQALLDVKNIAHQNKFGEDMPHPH

IC50 [1] [nM]	EC50 ([2]; MM1S cells) [nM]	IC50 [3] [nM]	SMILES	Metabolic stability HLM % remaining in 30 min [4] [%]	EC50 [2] [nM]	Metabolic stability MLM % remaining in 30 min [5] [%]
134	12	95	O=C(NO)c1cnc(N2CCC(CNC3CC3c3ccc(-c4ccc(F)cc4)cc3)CC2)nc1 (stereo not shown) [Example 15, 2-(4-(((2-(4′-fluoro-[1,1′-biphenyl]-4-yl)cyclopropyl)amino)methyl)piperidin-1-yl)-N-hydroxypyrimidine-5-carboxamide TFA Salt]	–	–	–
> 1000	–	2250	O=C(NO)C1CCC(NC2CC2c2ccccc2)CC1 (stereo not shown) [Example 33, 4-(2-Phenyl-cyclopropylamino)-cyclohexanecarboxylic Acid Hydroxyamide TFA Salt]	–	–	–
199	1430	34	Cn1cc(-c2ccc(C3CC3NCC3CCN(Cc4ccc(C(=O)NO)cc4)CC3)cc2)ccc1=O (stereo not shown) [Example 35, N-hydroxy-4-((4-(((2-(4-(1-methyl-6-oxo-1,6-dihydropyridin-3-yl)phenyl)cyclopropyl)amino)methyl)piperidin-1-yl)methyl)benzamide TFA Salt]	–	–	–
74	–	319	O=C(NO)c1ccc(Cn2cc(CNC3CC3c3ccccc3)nn2)cc1 (stereo not shown) [Example 41, N-hydroxy-4-((4-(((2-phenylcyclopropyl)amino)methyl)-1H-1,2,3-triazol-1-yl)methyl)benzamide TFA Salt]	–	–	–
490	190	15	O=C(NO)c1ccc(CCN2CCC(CNC3CC3c3ccccc3)CC2)cc1 (stereo not shown) [Example 42, N-hydroxy-4-(2-(4-(((2-phenylcyclopropyl)amino)methyl)piperidin-1-yl)ethyl)benzamide TFA Salt]	–	–	–
272	70	484	CC(C)n1cc(C2CC2NCC2CCN(CCCc3ccc(C(=O)NO)cc3)CC2)cn1 (stereo not shown) [Example 67, N-hydroxy-4-(3-(4-(((2-(1-isopropyl-1H-pyrazol-4-yl)cyclopropyl)amino)methyl)piperidin-1-yl)propyl)benzamide TFA Salt]	–	–	–
365	246	286	O=C(NO)c1ccc(CCCn2cnc(CNC3CC3c3ccccc3)c2)cc1 (stereo not shown) [Example 75, N-hydroxy-4-(3-(4-(((2-phenylcyclopropyl)amino)methyl)-1H-imidazol-1-yl)propyl) benzamide TFA Salt]	–	–	–
22	42	84	O=C(NO)c1ccc(CCCn2cc(CNC3CC3c3ccccc3)cn2)cc1 (stereo not shown) [Example 76, N-hydroxy-4-(3-(4-(((2-phenylcyclopropyl)amino)methyl)-1H-pyrazol-1-yl)propyl)benzamide TFA Salt]	–	–	–
71	70	65	O=C(NO)c1ccc(CCCn2cc(CNC3CC3c3ccccc3)nn2)cc1 (stereo not shown) [Example 77, N-hydroxy-4-(3-(4-(((2-phenylcyclopropyl)amino)methyl)-1H-1,2,3-triazol-1-yl)propyl)benzamide TFA Salt]	–	–	–
575	> 10000	62	O=C(NO)c1ccc(S(=O)(=O)N2CCC(CNC3CC3c3ccccc3)CC2)cc1 (stereo not shown) [Example 85, N-hydroxy-4-((4-(((2-phenylcyclopropyl)amino)methyl)piperidin-1-yl)sulfonyl)benzamide TFA Salt]	–	–	–
1060	9110	25	O=C(NO)c1ccc(S(=O)(=O)NCCN2CCC(CNC3CC3c3ccc(F)cc3)CC2)cc1 (stereo not shown) [Example 87, 4-(N-(2-(4-(((2-(4-fluorophenyl)cyclopropyl)amino)methyl)piperidin-1-yl)ethyl)sulfamoyl)-N-hydroxybenzamide TFA Salt]	–	–	–
720	311	20	O=C(NO)c1ccc(C(=O)NCCN2CCC(CNC3CC3c3ccccc3)CC2)cc1 (stereo not shown) [Example 89, N-hydroxy-N4-(2-(4-(((2-phenylcyclopropyl)amino)methyl)piperidin-1-yl)ethyl)terephthalamide TFA Salt]	–	–	–
187	1040	72	O=C(NO)c1ccc(CCCC2CCN(C(=O)CNC3CC3c3ccccc3)CC2)cc1 (stereo not shown) [Example 93, N-hydroxy-4-(3-(1-(2-((2-phenylcyclopropyl)amino)acetyl)piperidin-4-yl)propyl)benzamide TFA Salt]	–	–	–
> 10000	> 10000	33	O=C(NO)c1ccc(OCCN2CCC(CNC3CC3c3ccccc3)CC2)nc1 (stereo not shown) [Example 97, N-hydroxy-6-(2-(4-(((2-phenylcyclopropyl)amino)methyl)piperidin-1-yl)ethoxy)nicotinamide TFA Salt]	–	–	–
5960	> 10000	37	O=C(NO)c1ccc(OCCN2CCC(CNC3CC3c3ccc(-c4ccc(F)cc4)cc3)CC2)nc1 (stereo not shown) [Example 98, 6-(2-(4-(((2-(4′-fluoro-[1,1′-biphenyl]-4-yl)cyclopropyl)amino)methyl)piperidin-1-yl)ethoxy)-N-hydroxynicotinamide TFA Salt]	–	–	–
107	1100	24	O=C(NO)c1ccc2c(c1)CN(C(=O)CCCN1CCC(CNC3CC3c3ccccc3)CC1)C2 (stereo not shown) [Example 109, N-hydroxy-2-(4-(4-(((2-phenylcyclopropyl)amino)methyl)piperidin-1-yl)butanoyl)isoindoline-5-carboxamide TFA Salt]	–	–	–
517	63	22	O=C(NO)c1cnc(CCCN2CCC(CNC3CC3c3ccccc3)CC2)s1 (stereo not shown) [Example 112, N-hydroxy-2-(3-(4-(((2-phenylcyclopropyl)amino)methyl)piperidin-1-yl)propyl)thiazole-5-carboxamide TFA Salt]	–	–	–
> 10000	70	128	CC(C)n1cc(C2CC2NCC2CCN(CCCc3ccc(C(=O)Nc4ccccc4N)cc3)CC2)cn1 (stereo not shown) [Example 128, N-(2-aminophenyl)-4-(3-(4-(((2-(1-isopropyl-1H-pyrazol-4-yl)cyclopropyl)amino)methyl)piperidin-1-yl)propyl)benzamide TFA Salt]	–	–	–
> 10000	126	139	Nc1ccccc1NC(=O)c1ccc(CCCn2cc(CNC3CC3c3ccccc3)nn2)cc1 (stereo not shown) [Example 137, N-(2-aminophenyl)-4-(3-(4-(((2-phenylcyclopropyl)amino)methyl)-1H-1,2,3-triazol-1-yl)propyl)benzamide TFA Salt]	–	–	–
> 10000	65	99	Nc1ccccc1NC(=O)c1ccc(CCCn2cc(CNC3CC3c3ccccc3)cn2)cc1 (stereo not shown) [Example 138, N-(2-aminophenyl)-4-(3-(4-(((2-phenylcyclopropyl)amino)methyl)-1H-pyrazol-1-yl)propyl)benzamide TFA Salt]	–	–	–
> 10000	123	61	Nc1ccccc1NC(=O)c1ccc(Cn2cc(CNC3CC3c3ccccc3)cn2)cc1 (stereo not shown) [Example 145, N-(2-aminophenyl)-4-((4-(((2-phenylcyclopropyl)amino)methyl)-1H-pyrazol-1-yl)methyl)benzamide TFA Salt]	–	–	–
> 10000	106	69	Nc1ccccc1NC(=O)c1ccc(Cn2cc(CNC3CC3c3ccccc3)nn2)cc1 (stereo not shown) [Example 146, N-(2-aminophenyl)-4-((4-(((2-phenylcyclopropyl)amino)methyl)-1H-1,2,3-triazol-1-yl)methyl)benzamide TFA Salt]	–	–	–
> 10000	> 10000	21	Nc1ccccc1NC(=O)c1ccc(OCCN2CCC(CNC3CC3c3ccc(F)cc3)CC2)nc1 (stereo not shown) [Example 149, N-(2-aminophenyl)-6-(2-(4-(((2-(4-fluorophenyl)cyclopropyl)amino)methyl)piperidin-1-yl)ethoxy)nicotinamide TFA Salt]	–	–	–
> 10000	571	24	Nc1ccccc1NC(=O)c1coc(CCCN2CCC(CNC3CC3c3ccccc3)CC2)n1 (stereo not shown) [Example 153, N-(2-aminophenyl)-2-(3-(4-(((2-phenylcyclopropyl)amino)methyl)piperidin-1-yl)propyl)oxazole-4-carboxamide TFA Salt]	–	–	–
> 10000	178	43	Nc1ccccc1NC(=O)c1ccc(S(=O)(=O)N2CCC(CNC3CC3c3ccccc3)CC2)cc1 (stereo not shown) [Example 160, N-(2-aminophenyl)-4-((4-(((2-phenylcyclopropyl)amino)methyl)piperidin-1-yl)sulfonyl)benzamide TFA Salt]	–	–	–

SMILES	IC50 [1] [nM]	EC50 ([2]; MM1S cells) [nM]	IC50 [3] [nM]	Metabolic stability HLM % remaining in 30 min [4] [%]	EC50 [2] [nM]	Metabolic stability MLM % remaining in 30 min [5] [%]
O=C(NO)c1ccc(OCCN2CCC(CNC3CC3c3ccc(F)cc3)CC2)nc1 (stereo not shown) [Example 96, 6-(2-(4-(((2-(4-fluorophenyl)cyclopropyl)amino)methyl)piperidin-1-yl)ethoxy)-N-hydroxynicotinamide TFA Salt]	–	–	22	93	> 10000	89
O=C(NO)c1csc(CCCN2CCC(CNC3CC3c3ccc(-c4ccc(F)cc4)cc3)CC2)n1 (stereo not shown) [Example 111, 2-(3-(4-(((2-(4′-fluoro-[1,1′-biphenyl]-4-yl)cyclopropyl)amino)methyl)piperidin-1-yl)propyl)-N-hydroxythiazole-4-carboxamide TFA Salt]	–	–	22	95	3060	91
Cc1noc(C)c1-c1ccc(C2CC2NCC2CCN(C(=O)/C=C/c3ccc(C(=O)NO)cc3)CC2)cc1 (stereo not shown) [Example 116, (E)-4-(3-(4-(((2-(4-(3,5-dimethylisoxazol-4-yl)phenyl)cyclopropyl)amino)methyl)piperidin-1-yl)-3-oxoprop-1-en-1-yl)-N-hydroxybenzamide TFA Salt]	–	–	69	63	157	50
